Laboratory results published in PubChem BioAssay AID294 (DTP/NCI, 2004).
Values joined by “and” are separate entries in the source; they are usually repeats but may differ in a detail not shown here. Identical values can stand only once.

Tested on: MX-1 breast xenograft, nude mice, tumor weight change
Experiment: NCI In Vivo Anticancer Drug Screen. Data for tumor model Human Mammary Carcinoma MX-1 Xenograft (subcutaneous) in NU/NU Swiss (nude) mice
Settings: endpoint: optimum tumor weight change, higher = larger tumour
Method: The antitumor activity of compounds was measured in mice bearing transplantable tumors. Survival or tumor size were measured and the results are expressed as the measurement made in the treated group (T) divided by the measurement made in the vehicle treated control group (C). The tumor model used in this assay is Human Mammary Carcinoma MX-1 Xenograft (subcutaneous) in NU/NU Swiss (nude) mice

[1] = dose: 100.0 mg/kg/injection, schedule: Q04DX003 (ip), vehicle: suspension in saline
[2] = dose: 200.0 mg/kg/injection, schedule: Q04DX003 (ip), vehicle: suspension in saline
[3] = dose: 100.0 mg/kg/injection, schedule: Q04DX003 (ip), vehicle: saline with Tween-80
[4] = dose: 200.0 mg/kg/injection, schedule: Q04DX003 (ip), vehicle: saline with Tween-80
[5] = dose: 400.0 mg/kg/injection, schedule: Q04DX003 (ip), vehicle: saline with Tween-80
[6] = dose: 800.0 mg/kg/injection, schedule: Q04DX003 (ip), vehicle: saline with Tween-80
[7] = dose: 3.13 mg/kg/injection, schedule: Q04DX003 (ip), vehicle: saline
[8] = dose: 12.5 mg/kg/injection, schedule: Q04DX003 (ip), vehicle: saline
[9] = dose: 25.0 mg/kg/injection, schedule: Q04DX003 (ip), vehicle: saline
[10] = dose: 50.0 mg/kg/injection, schedule: Q04DX003 (ip), vehicle: saline
[11] = dose: 12.5 mg/kg/injection, schedule: Q04DX003 (ip), vehicle: saline with Tween-80

CC(CN1CC(=O)NC(=O)C1)N1CC(=O)NC(=O)C1 (configuration not stated)
T/C [1]: 65 % of control | T/C [2]: 73 % of control | T/C (dose: 400.0 mg/kg/injection, schedule: Q04DX003 (ip), vehicle: suspension in saline): 55 % of control

NC(=S)N/N=C/c1ccc(O)cn1
T/C [3]: 81 % of control | T/C [4]: 46 % of control | T/C [5]: 39 % of control | T/C [6]: 73 % of control

OCC1OC(n2cnc3c2NC=NC[C@H]3O)CC1O (some centres not stated)
T/C (dose: 4.0 mg/kg/injection, schedule: Q04DX003 (ip), vehicle: water): 77 % of control | T/C (dose: 8.0 mg/kg/injection, schedule: Q04DX003 (ip), vehicle: water): 78 % of control | T/C (dose: 16.0 mg/kg/injection, schedule: Q04DX003 (ip), vehicle: water): 49 % of control

Cc1c(N)nc(C(CC(N)=O)NCC(N)C(N)=O)nc1C(=O)NC(C(=O)NC(C)C(O)C(C)C(=O)NC(C(=O)NCCc1nc(-c2nc(C(=O)NCCCNC(C)c3ccccc3)cs2)cs1)C(C)O)C(OC1OC(CO)C(O)C(O)C1OC1OC(CO)C(O)C(OC(N)=O)C1O)c1cnc[nH]1 (configuration not stated)
T/C (dose: 7.5 mg/kg/injection, schedule: Q04DX003 (ip), vehicle: saline): 43 % of control and 50 % of control | T/C (dose: 30.0 mg/kg/injection, schedule: Q04DX003 (ip), vehicle: saline): 18 % of control and 22 % of control | T/C (dose: 60.0 mg/kg/injection, schedule: Q04DX003 (ip), vehicle: saline): 17 % of control

O=c1[nH]cnc2n[nH]nc12
T/C (dose: 400.0 mg/kg/injection, schedule: Q04DX003 (ip), vehicle: Klucel (hydroxypropylcellulose) (HPC)): 99 % of control

C[C@]12CC[C@@H]3c4ccc(OC(=O)Cc5ccc(N(CCCl)CCCl)cc5)cc4CC[C@H]3[C@@H]1CC[C@@H]2OC(=O)Cc1ccc(N(CCCl)CCCl)cc1
T/C [6]: 50 % of control

C=C(C)[C@H]1Cc2c(ccc3c2O[C@@H]2COc4cc(OC)c(OC)cc4[C@@H]2C3=O)O1
T/C [7]: 66 % of control | T/C [8]: 86 % of control | T/C [9]: 76 % of control

Nc1cc2[nH]cnc2c(=O)[nH]1
T/C [10]: 58 % of control | T/C (dose: 100.0 mg/kg/injection, schedule: Q04DX003 (ip), vehicle: saline): 87 % of control | T/C (dose: 200.0 mg/kg/injection, schedule: Q04DX003 (ip), vehicle: saline): 59 % of control

COc1cc(NS(C)(=O)=O)ccc1Nc1c2ccccc2nc2ccccc12
T/C (dose: 8.0 mg/kg/injection, schedule: Q04DX003 (ip), vehicle: saline + alcohol): 74 % of control

CC1(CO)C(O)CCC2(C)C1CCC1CC3CC12CCC3(O)CO (configuration not stated)
T/C [3]: 50 % of control | T/C [4]: 61 % of control | T/C [5]: 54 % of control

Cc1cc(N(CC(C)Br)CC(C)Br)ccc1N=Nc1ccccc1C(=O)O (configuration not stated)
T/C (dose: 3.13 mg/kg/injection, schedule: Q04DX003 (ip), vehicle: saline with Tween-80): 75 % of control | T/C (dose: 6.25 mg/kg/injection, schedule: Q04DX003 (ip), vehicle: saline with Tween-80): 73 % of control | T/C [11]: 61 % of control

O=NN(CCCl)C(=O)NC1CCCCC1
T/C (dose: 12.5 mg/kg/injection, schedule: Q04DX003 (ip), vehicle: Klucel (hydroxypropylcellulose) (HPC)): 75 % of control

COc1cc([C@@H]2c3cc4c(c(O)c3C[C@H]3COC(=O)[C@@H]32)OCO4)cc(OC)c1O
T/C [7]: 92 % of control | T/C (dose: 6.25 mg/kg/injection, schedule: Q04DX003 (ip), vehicle: saline): 57 % of control

C=CC(=O)N1CN(C(=O)C=C)CN(C(=O)C=C)C1
T/C [11]: 52 % of control

CN1CCN(CCCN2c3ccccc3Sc3ccc(C(F)(F)F)cc32)CC1
T/C [10]: 58 % of control

O=S(CCCl)CCCl
T/C (dose: 25.0 mg/kg/injection, schedule: Q04DX003 (ip), vehicle: Klucel (hydroxypropylcellulose) (HPC)): 75 % of control | T/C (dose: 100.0 mg/kg/injection, schedule: Q04DX003 (ip), vehicle: Klucel (hydroxypropylcellulose) (HPC)): 34 % of control

N[C@@H](Cc1ccc(N(CCCl)CCCl)cc1)C(=O)O
T/C (dose: 2.0 mg/kg/injection, schedule: Q04DX003 (ip), vehicle: Klucel (hydroxypropylcellulose) (HPC)): 49 % of control | T/C (dose: 4.0 mg/kg/injection, schedule: Q04DX003 (ip), vehicle: Klucel (hydroxypropylcellulose) (HPC)): 37 % of control | T/C (dose: 4.0 mg/kg/injection, schedule: Q04DX003 (ip), vehicle: suspension in saline): 19 % of control and 36 % of control | T/C (dose: 8.0 mg/kg/injection, schedule: Q04DX003 (ip), vehicle: Klucel (hydroxypropylcellulose) (HPC)): -42 % of control

C=CC(=O)NCNC(=O)C=C
T/C [1]: 101 % of control | T/C [2]: 84 % of control

O=C(NO)c1ccccc1
T/C (dose: 25.0 mg/kg/injection, schedule: Q01DX003 (ip), vehicle: saline): 82 % of control | T/C (dose: 50.0 mg/kg/injection, schedule: Q01DX003 (ip), vehicle: saline): 108 % of control | T/C (dose: 100.0 mg/kg/injection, schedule: Q01DX003 (ip), vehicle: saline): 42 % of control

OCC1OC(n2cnc3cncnc32)C(O)C1O (configuration not stated)
T/C [8]: 88 % of control | T/C [9]: 94 % of control | T/C [10]: 108 % of control
